Experimental findings from PMC3812159, “A Comparative Analysis of the Ubiquitination Kinetics of Multiple Degrons to Identify an Ideal Targeting Sequence for a Proteasome Reporter” (PLoS ONE, 2013) are described below.

Read-outs that look alike come from different tables or passages of the source. Residues, ends and D or L forms follow the SMILES beside them. *: point of attachment. 5FAM = O=C1OC2(c3ccc(O)cc3Oc3cc(O)ccc32)c2ccc(C(=O)*)cc21

The subject of data set [1] is endogenous proteases and peptidases found in the S100 lysates. As to the kind of experiment: Peptidase-dependent degradation rate constants from the multi-monoubiquitination model. To be noted: values multiplied by 10^3; for k5, rate constant for peptidase-dependent degradation of unmodified parent substrate: HeLa S100 cytosolic lysates 2 mg/mL, proteasome inhibited by 100 µM MG-132, pH 7.6, 37°C, 12-14 µM peptide, model-fitted (MCMC), degraded substrate not measured; for k6, rate constant for peptidase-dependent degradation of mono-ubiquitinated substrate / k7, rate constant for peptidase-dependent degradation of di-ubiquitinated substrate / k8, rate constant for peptidase-dependent degradation of tri-ubiquitinated substrate / k9, rate constant for peptidase-dependent degradation of tetra-ubiquitinated substrate: as k5, HeLa S100 lysates, MG-132, 37°C, model-fitted.
Protocol: (§1) The in vitro ubiquitination assay was carried out at the indicated times at 37°C in a total reaction volume of 25 µL containing assay buffer (10 mM Tris-HCl pH 7.6 and 5 mM MgCl2) with 2 mM DTT, 20 µg/mL ubiquitin aldehyde (Boston Biochem), 400 µg/mL methylated ubiquitin (Enzo Life Sciences), 1×ATP energy regenerating solution (ATP-ERS, Boston Biochem), 100 µM of the proteasome inhibitor MG-132 (EMD Chemicals), 2 mg/mL HeLa S100 cytosolic lysates as the source of E1, E2, and E3 enzymes, 750 ng of indicated peptide substrate, and inhibitors Complete ULTRA and PhosSTOP (Roche). Reactions were halted by addition of 2× tricine sample buffer (Bio-Rad) and subsequent boiling. Samples were loaded onto SDS page gels (precast 16.5% Mini PROTEAN Tris-Tricine, Bio-Rad) using 1× tris-tricine running buffer and visualized with a Typhoon Imager (GE Healthcare Life Sciences). Gels were quantified using ImageJ (US National Institute of Health) by comparing sample intensity to unreacted parent peptide intensity, which is not depicted in the gels.
(§2) Ubiquitin pull down assays were performed similarly to the in vitro ubiquitination assay as described above, with the exception of a total volume of 100 µL and 4.2 µg of peptide substrate. At the end of the indicated times, samples were incubated with Control-Agarose beads (LifeSensors), diluted in TBS-T buffer (20 mM Tris-HCl pH 8.0, 150 mM NaCl, and 0.1% v/v Tween-20), for 60 min on a tube rotator at 4°C. Samples were subsequently centrifuged at 1800×g for 5 min to pellet and remove control beads. The supernatant was transferred to solution of Agarose-TUBES1 (LifeSensors) diluted in TBS-T and incubated overnight on a tube rotator at 4°C. Ubiquitin-bound beads were washed 5× with TBS-T and then the samples were eluted off of the bead with 2× tricine sample buffer, boiled for 5 min, and then isolated by centrifugation for 5 min at 13000×g. Samples were loaded onto an SDS PAGE gel, electrophoresed, visualized and quantified as described above.
(§3) The series of ordinary differential equations were solved in MATLAB using ODE15s and the boundary conditions defined in equations S1–S6. Kinetic rate constants were determined using a Markov Chain Monte Carlo (MCMC) algorithm in MATLAB by minimizing the cumulative sum of the squared deviations (cSSD), as defined by equations S8–S9, between the calculated and experimental data similar to previous work by Cirit et. al. [23].
(§4) To accomplish this objective, a kinetic model was developed to describe the step-wise ubiquitination of the degron-based substrates. The goal of this model was to both determine the reaction kinetics for ubiquitin transfer to the degron-based substrates and distinguish polyubiquitination from multi-monoubiquitination. […] Each step in the reaction was described by a corresponding rate constant (k1–k9). Due to the presence of the deubiquitinating enzyme (DUB) inhibitor ubiquitin aldehyde, substrate deubiquitination was neglected. Further, the proteasome inhibitor MG-132 was added at an appropriate amount to neglect proteasome-mediated degradation of the substrates.

Data set [2] shares this test system.
Protocol: as §1, §2, §3, §4
For data set [3], the system named is HeLa S100 cytosolic lysates as the source of E1, E2, and E3 enzymes. Description: Ubiquitin pull down assay with methylated ubiquitin, multi-monoubiquitination kinetic model. Format: biochemical. To be noted: for substrate ubiquitination, fluorescent intensity compared to unmodified substrate: ubiquitin pull down, methylated ubiquitin, time points up to 240 min, n = 3; for k1/k5, mono-ubiquitination vs. degradation of unmodified substrate: ratio of fitted rate constants, >1 favours ubiquitination, <1 degradation. From the text: A second model based on substrate multi-monoubiquitination was developed and evaluated. This model assumed that the generation of di-, tri-, and tetra-ubiquitinated species was the result of multiple methylated ubiquitins being conjugated to the multiple available lysines found on the degron-based substrate (Figure 3a). As opposed to the polyubiquitination model, the multi-monoubiquitination model accurately fit the data for all eight degron-based substrates (Figure 3b–d, Figure S4 in File S1, Table 2). Using this model, kinetic rate constants for all ubiquitination (k1 for mono-, k2 for di-, k3 for tri-, and k4 for tetra-) and peptidase-dependent degradation steps (Table 2) were calculated. The multi-monoubiquitination model nicely corresponded to the observed results in Figure 2. […] The model also captured the preference for di-ubiquitination of the Cyclin D1 degron (k2 is two-fold greater than k1) and the equal preference of mono- and di-ubiquitination states found in the HIF-1α degron (k1 of 2.6 and k2 of 3.0). Further, the similar behavior and observed kinetics for IFNAR and TAZ degrons were mostly likely due to the fact that these degrons are recognized by the same E3 ligase, SCF^βTrCP (Table 1). To test the robustness of the multi-monoubiquitination model, a ninth substrate based on the degron from the protein β-Catenin was assessed. This substrate was selected because it is ubiquitinated by the same E3 ligase as TAZ and IFNAR1, SCF^βTrCP. The model accurately fit the data for the multi-monoubiquitination of the β-Catenin degron-based substrate with similar rate constants compared to the TAZ and IFNAR1-based substrates (Table 2). Finally, it was important to assess the validity of the model by addressing the relative goodness of fit between the experimental data and the model predictions as determined from the multi-monoubiquitination model. For this particular analysis it was decided to calculate the sample Pearson correlation coefficient (Eq. S10 in File S1), a widely used metric to measure the dependence between two variables. A correlation coefficient was calculated between the model predictions and experimental data for mono-, di-, tri-, and tetra-ubiquitinated substrate for all nine degron-based substrates (Table S1 in File S1). As per convention, a positive value approaching 1 corresponds to a very good fit, which is observed for all nine substrates indicating a good fit between model and data.

Turning to `CC(=O)N[C@@H](CCCCN)C(=O)N[C@H](C(=O)N[C@@H](CCCNC(=N)N)C(=O)NCC(=O)N[C@H](C(=O)N[C@@H](CCC(=O)O)C(=O)N[C@@H](CCC(=O)O)C(=O)N[C@H](C(=O)N[C@@H](C)C(=O)N[C@@H](CCC(=O)O)C(=O)NCC(=O)N[C@H](C(=O)N[C@H](C(=O)N[C@@H](CC(C)C)C(=O)N[C@@H](CC(C)C)C(=O)N[C@@H](CCCNC(=N)N)C(=O)N[C@@H](CCCNC(=N)N)C(=O)N[C@@H](CCCNC(=N)N)C(=O)NCC(=O)N[C@@H](CC(N)=O)C(=O)N[C@@H](CCCCNC(=O)c1ccc2c(c1)C(=O)OC21c2ccc(O)cc2Oc2cc(O)ccc21)C(=O)N[C@@H](CCCCN)C(=O)N[C@@H](CCCCN)C(=O)N[C@@H](CCCCN)C(N)=O)C(C)C)C(C)C)C(C)C)C(C)C)[C@@H](C)O` [Bonger] (Ac-KTRGVEEVAEGVVLLRRRGNK(5FAM)KKK-NH2), in data set [1], the “k5, rate constant for peptidase-dependent degradation of unmodified parent substrate” value is 4.0 (1/min)*10^3; the “k6, rate constant for peptidase-dependent degradation of mono-ubiquitinated substrate” value (from here on “k6, rate constant”) is listed as 0.01 (1/min)*10^3; the “k7, rate constant for peptidase-dependent degradation of di-ubiquitinated substrate” value (“k7, rate constant” for short) is 1.0 (1/min)*10^3; the “k8, rate constant for peptidase-dependent degradation of tri-ubiquitinated substrate” value (shortened to “k8, rate constant”) is reported as 0.01 (1/min)*10^3. Moreover, in data set [1], the “k9, rate constant for peptidase-dependent degradation of tetra-ubiquitinated substrate” value (“k9, rate constant” for short) is 0.01 (1/min)*10^3.
Turning to `CC[C@H](C)[C@H](NC(=O)[C@H](Cc1ccc(O)cc1)NC(=O)[C@@H]1CCCN1C(=O)[C@H](C)NC(=O)[C@H](CC(C)C)NC(=O)[C@H](C)NC(=O)[C@H](CCC(=O)O)NC(=O)[C@H](CC(C)C)NC(=O)[C@H](CC(=O)O)NC(=O)[C@H](CC(C)C)NC(=O)[C@H](CC(=O)O)NC(=O)[C@H](C)NC(=O)[C@H](CO)NC(=O)[C@H](C)NC(C)=O)C(=O)N1CCC[C@H]1C(=O)N[C@@H](C)C(=O)N[C@@H](CC(=O)O)C(=O)N[C@@H](CC(=O)O)C(=O)N[C@@H](CC(=O)O)C(=O)N[C@@H](Cc1ccccc1)C(=O)N[C@@H](CCC(N)=O)C(=O)N[C@@H](CC(C)C)C(=O)N[C@@H](CCCNC(=N)N)C(=O)N[C@@H](CCCCNC(=O)c1ccc2c(c1)C(=O)OC21c2ccc(O)cc2Oc2cc(O)ccc21)C(=O)N[C@@H](CCCCN)C(=O)N[C@@H](CCCCN)C(=O)N[C@@H](CCCCN)C(N)=O` [HIF-1α] (Ac-ASADLDLEALAPYIPADDDFQLRK(5FAM)KKK-NH2), in data set [1], the “k5, rate constant for peptidase-dependent degradation of unmodified parent substrate” value was 7.0 (1/min)*10^3; the “k6, rate constant” value was 0.1 (1/min)*10^3; the “k7, rate constant” value is recorded as 0.1 (1/min)*10^3; the “k8, rate constant” value is recorded as 0.4 (1/min)*10^3. Also, the “k9, rate constant” value in data set [1] is 0.8 (1/min)*10^3.
On to `CC(=O)N[C@@H](CCCCN)C(=O)N1CCC[C@H]1C(=O)N[C@@H](CC(C)C)C(=O)N[C@@H](CO)C(=O)N[C@@H](CO)C(=O)N[C@@H](CO)C(=O)N[C@H](C(=O)N1CCC[C@H]1C(=O)N[C@@H](CO)C(=O)N[C@@H](CCC(N)=O)C(=O)N[C@@H](CCCCN)C(=O)N[C@H](C(=O)N[C@@H](Cc1ccc(O)cc1)C(=O)N[C@@H](CCC(N)=O)C(=O)NCC(=O)N[C@@H](CO)C(=O)N[C@@H](Cc1ccc(O)cc1)C(=O)NCC(=O)N[C@@H](Cc1ccccc1)C(=O)N[C@@H](CCCNC(=N)N)C(=O)N[C@@H](CC(C)C)C(=O)NCC(=O)N[C@@H](CCCCNC(=O)c1ccc2c(c1)C(=O)OC21c2ccc(O)cc2Oc2cc(O)ccc21)C(=O)N[C@@H](CCCCN)C(=O)N[C@@H](CCCCN)C(=O)N[C@@H](CCCCN)C(N)=O)[C@@H](C)O)C(C)C` [p53] (Ac-KPLSSSVPSQKTYQGSYGFRLGK(5FAM)KKK-NH2), for which, in data set [2], the “k6, rate constant” value is 0.01 (1/min)*10^3; the “k7, rate constant” value was 0.01 (1/min)*10^3; the “k8, rate constant” value was 0.01 (1/min)*10^3; the “k9, rate constant” value is 0.33 (1/min)*10^3.
With “K-(PEG)-DVQKADVSSTGQGIDSK(FAM)KKK [SRC3]”, in data set [3], the “substrate ubiquitination, fluorescent intensity compared to unmodified substrate” value is given as “lowest degree of ubiquitination”. In data set [2], the “k6, rate constant” value is listed as 0.01 (1/min)*10^3; the “k7, rate constant” value was 0.01 (1/min)*10^3; the “k8, rate constant” value was 0.01 (1/min)*10^3; the “k9, rate constant” value is given as 0.33 (1/min)*10^3.
For the compound K-(PEG)-KEEKDINNNVKKTK(FAM)KKK [iNOS], in data set [3], the “k1/k5, mono-ubiquitination vs. degradation of unmodified substrate” value was determined as 1.62 and the “substrate ubiquitination, fluorescent intensity compared to unmodified substrate” value is recorded as “higher ubiquitination”. Moreover, in data set [2], the “k6, rate constant” value is reported as 1.0 (1/min)*10^3; the “k7, rate constant” value is reported as 0.01 (1/min)*10^3; the “k8, rate constant” value is given as 0.01 (1/min)*10^3; the “k9, rate constant” value is listed as 0.3 (1/min)*10^3.
Regarding “KAAEEEEVSLASTPTDVRDVDIK(FAM)KKK [Cyclin D1]”, in data set [3], the “k1/k5, mono-ubiquitination vs. degradation of unmodified substrate” value was determined as 0.47 and the “substrate ubiquitination, fluorescent intensity compared to unmodified substrate” value is reported as “lowest degree of ubiquitination”. Besides, in data set [2], the “k6, rate constant” value is on record as 0.01 (1/min)*10^3; the “k7, rate constant” value is 0.01 (1/min)*10^3; the “k8, rate constant” value was 0.01 (1/min)*10^3; the “k9, rate constant” value was 1.8 (1/min)*10^3.
Take KKYSSQTSQDSGNYSNK(FAM)KKK [IFNAR1]: the “k1/k5, mono-ubiquitination vs. degradation of unmodified substrate” value in data set [3] was 0.96. In data set [2], the “k6, rate constant” value was 0.01 (1/min)*10^3; the “k7, rate constant” value is reported as 0.01 (1/min)*10^3; the “k8, rate constant” value is listed as 0.01 (1/min)*10^3; the “k9, rate constant” value is on record as 0.1 (1/min)*10^3.
For “KPFLNGGPYHSREQSTDSGLGLGSYK(FAM)KKK [TAZ]”, the “k1/k5, mono-ubiquitination vs. degradation of unmodified substrate” value in data set [3] came out at 2.65. In data set [2], the “k6, rate constant” value is 1.5 (1/min)*10^3; the “k7, rate constant” value is listed as 0.1 (1/min)*10^3; the “k8, rate constant” value was 0.5 (1/min)*10^3; the “k9, rate constant” value is recorded as 0.1 (1/min)*10^3.
